The test system of assay [1] is Hep3B2.1-7 human liver tumor cells. Nature of the assay: Hepatocellular carcinoma (Hep3B2.1-7) orthotopic study. The format is in vivo, mice. Conditions: 10 mg/kg daily p.o., three weeks; FIGS. 17-18. As for the experimental part:
Hepatocellular Carcinoma (Hep3B2.1-7) Orthotopic Study. Hep3B2.1-7 human liver tumor cells were cultured in RPMI 1640 cell culture medium, supplemented with 10% FBS, 1% Glutamax and 1% penicillin-streptomycin. The cells were harvested by trypsinization, washed twice in HBSS and counted. The cells were then resuspended in HBSS:Matrigel™ (1:1, v/v) to a final concentration of 2×10^8 cells/mL. Prior to inoculation (while the animal was anesthetized via injectable Ketamil (10 mg/mL)/Xylazil (0.9 mg/mL) anesthetic), the skin on the incision site was swabbed with alcohol and an incision was made into the skin directly over the liver to expose the main lobe of the liver. The needle was introduced into the main lobe of the liver, where 2×10^6 Hep3B2.1-7 cells (in 10 μL with 50% Matrigel™) were discharged. Fourteen days post-inoculation, a satellite group of mice were culled to assess the presence of tumors in the liver.
Compound 1 powder was suspended in 0.5% CMC/0.25% Tween80 to achieve a stock concentration of 2 mg/mL. […]
The Vehicle Control and Test Articles were administered in a dosing volume of 5 mL/kg. Each animal's body weight was measured immediately prior to dosing. The volume of dosing solution administered to each animal was calculated and adjusted based on individual body weight. […]

A further assay has as its system U87MG tumors. Nature of the assay: Apoptosis TUNEL assay in U87MG tumors. The assay is classed as in vivo, mice. Conditions: 5 mg/kg BID oral for 4 days. Here is the method:
Mechanism of action studies. To determine the mechanism of action of Compound 1, mice bearing U87MG tumors of approximately 500 mm^3 were dosed orally with vehicle or Compound 1 at 5 mg/kg BID for 4 days. The positive control, rapamycin, was dosed at 4 mg/kg Q3D for 4 days. Two hours after the 7th dose of Compound 1 on day 4, animals were euthanized and tumors were dissected out and snap frozen in liquid nitrogen. In the rapamycin-treated group tumors were collected at 2 hour after the 2nd dose on day 4. The tumors were processed for immunohistochemistry (IHC) or TUNEL.
Apoptosis TUNEL Assay. To detect apoptotic cells, fluorescence in situ cell death detection kit (Roche Biosciences) was used. […]
Quantitation of Immunohistochemistry. The tissues sections processed for apoptosis or immunostained for proliferating cells (Ki67) or blood vessels were quantitated using Metamorph software. Using 20× objective, 5 different fields from each section, 2-4 sections from each tumor, and 3-4 tumors from each treatment group or control were used for quantitation. The area of interest was expressed as the percent threshold area of the total area.
Apoptotic Activity of Compound 1. […] FITC-labeled nucleotides (representing the cells with DNA strand breaks, a hallmark of apoptosis) can be detected using a microscope equipped with a fluorescence attachment.

Another assay deals with NCI-H1993. Nature of the assay: Cell viability assay for NSCLC lines. The assay is classed as cell-based, human. Conditions: NCI-H1993, 3 days. As for the experimental part: (§1) Cell Viability Assay for NSCLC Lines. Cell viability was assessed using the Cell Titer-Glo Luminescent Cell Viability from Promega. The assay is a homogenous method of determining the number of viable cells in culture based on quantitation of the adenosine triphosphate (ATP) present, an indicator of metabolically active cells. The homogenous assay procedure involves adding the single reagent (CellTiter-Glo Reagent) directly to cells cultured in serum-supplemented medium. Cells were plated into a 96-well flat bottom plate (Costar Catalog Number 33595) at densities that were previously optimized for each cell line. The cells were incubated overnight in 5% CO2 at 37° C. The following day, compound dilutions were prepared and all concentrations were assayed in triplicate. The cells were incubated with Compound 1 (0.03 μM, 0.1 μM, 0.3 μM, 1 μM, 3 μM, 10 μM and 30 μM for NSCLC cells) in 5% CO2 at 37° C. for 3 days. After a 3-day incubation period, 100 μL of CellTiter-Glo reagent was added to each well for 2 minutes with shaking and further incubated for 10 minutes (no shaking) at room temperature to stabilize the signal. The luminescence was measured on the VICTOR X2 multilabel plate reader. The percent growth inhibition was calculated using the DMSO control in the same plate (no compound) response as 100% cell growth. The average values from triplicates were plotted to obtain IC50 values using software XLfit from IDBS. The formula used for determining IC50 in XLfit was model number 205, which utilizes a 4 Parameter Logistic Model or Sigmoidal Dose-Response Model to calculate the IC50 values. All IC50 values are reported as an average from either two independent experiments or a single experiment.

The next assay concerns HOP62. Kind of assay: Cell viability assay for NSCLC lines. The format is cell-based, human. The conditions noted are these: HOP62, 3 days. As for the experimental part:
as §1

The test system of another assay is NCI-H1792. Kind of assay: Cell viability assay for NSCLC lines. The format is cell-based, human. The conditions noted are these: NCI-H1792, 3 days. Here is the method: as §1
The test system of another assay is Calu-1. Nature of the assay: Cell viability assay for NSCLC lines. The conditions noted are these: Calu-1, 3 days. The assay is classed as cell-based, human. Here is the method:
as §1

Another assay concerns NCI-H1755. Nature of the assay: Cell viability assay for NSCLC lines. The format is cell-based, human. The conditions noted are these: NCI-H1755, 3 days. As for the experimental part: as §1

Take `CO[C@H]1CC[C@H](N2C(=O)CNc3ncc(-c4ccc(C(C)(C)O)nc4)nc32)CC1` [Compound 1, 7-(6-(2-hydroxypropan-2-yl)pyridin-3-yl)-1-((1r,4r)-4-methoxycyclohexyl)-3,4-dihydropyrazino-[2,3-b]pyrazin-2(1H)-one]: in assay [1], the tumor growth inhibition result is recorded as “significant tumor growth inhibition”. The “TUNEL-positive cells compared with vehicle control” value with U87MG tumors is listed as “more than a four-fold increase”. In addition, the IC50 in the assay on NCI-H1993 was found to be 0.5 µM; in the assay on HOP62, 2.01 µM; with NCI-H1792, 0.54 µM; in the assay with Calu-1, 4.74 µM; with NCI-H1755, 3.03 µM.

These data come from patent US9493466B2, “Treatment of cancer with TOR kinase inhibitors” (Signal Pharmaceuticals, LLC, priority 2011, dated 2016).
